Results reported in patent US20250345391A1, “COMPOSITIONS AND METHODS FOR THE TREATMENT OF SEPSIS” (Children's Hospital Medical Center, priority 2022, published 2025).

What was measured:
[1] = test system: endothelial glycocalyx and mitochondria of thoracic aortas; test: Transmission electron microscopy of thoracic aortas with lanthanum staining after CLP; type: in vivo, Male C57BL/6 mice; conditions: 6 h after CLP; colivelin 100 μg/kg i.p. at 1 h after CLP; vs vehicle
Source text: The investigation conformed to the National Institutes of Health Guide for the Care and Use of Laboratory Animals (Eighth Edition, 2011) and was approved by the Institutional Animal Care and Use Committee of the Cincinnati Children's Hospital Medical Center. Male C57BL/6 mice were obtained from Charles River Laboratories International, Inc. (Wilmington, MA). Mice were used at 3-5 months of age to mimic the equivalent for human ranges from 20-25 years (29). Male mice only were chosen for the experimentation to avoid interference from female hormonal fluctuations in sepsis responses during the estrous cycle. Mice were housed in pathogen-free conditions under a 10-h light/14-h dark cycle with free access to food and water. Mice were anesthetized with 2.0% isoflurane in 50% oxygen and polymicrobial sepsis was induced by cecal ligation and puncture (CLP) (30). After a midline laparotomy, the cecum was exteriorized, ligated and punctured twice with a 23-G needle. The cecum was then returned into the peritoneal cavity and the abdominal incision was closed. […]
Glycocalyx structure was assessed by transmission electron microscopy (35). […]

STAT3 = test: Western blot of STAT3 and phosphorylated forms in thoracic aorta after CLP; type: in vivo, Male C57BL/6 mice; conditions: 6 h after CLP
Source text: The investigation conformed to the National Institutes of Health Guide for the Care and Use of Laboratory Animals (Eighth Edition, 2011) and was approved by the Institutional Animal Care and Use Committee of the Cincinnati Children's Hospital Medical Center. Male C57BL/6 mice were obtained from Charles River Laboratories International, Inc. (Wilmington, MA). Mice were used at 3-5 months of age to mimic the equivalent for human ranges from 20-25 years (29). Male mice only were chosen for the experimentation to avoid interference from female hormonal fluctuations in sepsis responses during the estrous cycle. Mice were housed in pathogen-free conditions under a 10-h light/14-h dark cycle with free access to food and water. Mice were anesthetized with 2.0% isoflurane in 50% oxygen and polymicrobial sepsis was induced by cecal ligation and puncture (CLP) (30). After a midline laparotomy, the cecum was exteriorized, ligated and punctured twice with a 23-G needle. The cecum was then returned into the peritoneal cavity and the abdominal incision was closed. After the procedure, mice were randomly assigned to three treatment groups: a vehicle-treated group received distilled water (200 μl/mouse) intraperitoneally (i.p.); a 100 μg colivelin-treated group received the colivelin at 100 μg/kg i.p., and a 200 μg colivelin-treated group received the colivelin at 200 μg/kg i.p. at 1 h after CLP. The intraperitoneal injection was chosen to allow for a rapid uptake and bioavailability of the peptide. All groups of mice also received fluid resuscitation (35 ml/kg normal saline solution subcutaneously) immediately after, at 3 h and 12 h after the CLP procedure. To minimize pain at the surgical incision site, lidocaine hydrochloride (1%, 4 mg/kg total dose) was applied locally immediately after the procedure. […] Mice were then sacrificed at 0, 6 and 18 h after CLP. Blood, lungs, kidneys, liver, and thoracic aortas were collected for biochemical assays.
Subcellular fractionation was performed using a centrifugation model. Tissue samples of lung and thoracic aortas were homogenized in a buffer (50 mg tissue/100 μL) containing 0.32 M sucrose, 10 mM Tris-HCl (pH 7.4), 1 mM EGTA, 2 mM EDTA, 5 mM NaN3, 10 mM β-mercaptoethanol, 2 μM leupeptin, 0.15 μM pepstatin A, 0.2 mM phenylmethanesulfonyl fluoride, 50 mM NaF, 1 mM sodium orthovanadate and 0.4 nM microcystin. Samples were centrifuged at 1000×g for 10 min at 4° C. and the supernatants collected as cytosol extracts, which also contain membrane and mitochondria. The pellets were then solubilized in Triton buffer (1% Triton X-100, 250 mM NaCl, 50 mM Tris HCl at pH 7.5, 3 mM EGTA, 3 mM EDTA, 1 mM phenylme-thanesulfonyl fluoride, 0.1 mM sodium orthovanadate, 10% glycerol, 2 mM p-nitrophenyl phosphate, 0.5% NP-40 and 46 μM aprotinin). The lysates were rocked for 1 h and subsequently centrifuged at 15,000×g for 30 min at 4° C. and the supernatant collected as nuclear extracts. The Bradford protein assay was then used for quantitative determination of total proteins.
Cytosol content of total AMPKα1/α2 and its phosphorylated form pAMPKα1/α2 (Santa Cruz Biotechnology, Dallas, TX, USA), cytosol and nuclear content of STAT3 and its phosphorylated forms pSTAT3(Tyr705) and pSTAT3(Ser727) (Cell Signaling Technology, Danvers, MA, USA) were determined by immunoblot analyses; β-actin was concomitantly probed with mouse anti-β-actin (Santa Cruz Biotechnology) as a loading control for both cytosol and nuclear proteins. Extracts were heated at 70° C. in equal volumes of 4× Protein Sample Loading Buffer. Twenty-five μg of proteins were loaded per lane on a 10% Bis-Tris gel. Proteins were separated electrophoretically and transferred to nitro-cellulose membranes. The immunoreaction was detected by near-infrared fluorescence. Membranes were blocked with Odyssey blocking buffer (LI-COR Biotechnology, Lincoln, NE, USA) and incubated with primary antibodies. […]

[2] = colivelin i.p. at 1 h after CLP, vs vehicle

Colivelin (SALLRSIPAPAGASRLLLLTGEIDLP)
Dense structure of endothelial glycocalyx in thoracic aorta (electron microscopy) [1]: appeared well preserved | Mitochondria in thoracic aorta cells (electron microscopy) [1]: appeared normal with dense matrix in all cell types | Nuclear expression of pSTAT3(Tyr705), thoracic aorta (STAT3; colivelin at the highest dose): inhibited | Cytosolic expression of pSTAT3(Ser727), thoracic aorta (STAT3; [2]): significantly reduced | Cytosolic expression of pSTAT3(Tyr705), thoracic aorta (STAT3; [2]): significantly reduced | Levels of total STAT3 in the cytosol, thoracic aorta (STAT3; [2]): restored | Levels of total STAT3 in the nucleus, thoracic aorta (STAT3; [2]): remained unchanged | Nuclear expression of pSTAT3(Ser727), thoracic aorta (STAT3; [2]): did not affect
